Measurements: ChEMBL document CHEMBL4177725, “Design and synthesis of novel pyrimidine analogs as highly selective, non-covalent BTK inhibitors” (Bioorg Med Chem Lett, 2018)
In brackets after ≈: the same amount, converted by molar mass. Activity calls are given as the source filed them. The calls are words filed in the database; no cut-off is given here.

How the values were obtained:
[1] = target: T1, Tyrosine-protein kinase BTK (Homo sapiens, UniProt Q06187); experiment: Inhibition of N-terminal DYKDDDDK tagged and biotinylated BTK activated form (unknown origin) using FITC-labeled Srctide substrate and ATP by microfluidic mobility shift assay
[2] = target: T1, Tyrosine-protein kinase BTK; experiment: Inhibition of His-tagged lambda phosphatase pre-treated N-terminal DYKDDDDK tagged and biotinylated BTK unactivated form (unknown origin) using FITC-labeled Srctide substrate and ATP by microfluidic mobility shift assay
[3] = target: Tyrosine-protein kinase SYK (Homo sapiens, UniProt P43405); experiment: Inhibition of SYK (unknown origin) using FITC-labeled Blk/Lyntide substrate and ATP by microfluidic mobility shift assay
[4] = target: T1, Tyrosine-protein kinase BTK; experiment: Inhibition of BTK (unknown origin) using FITC-labeled Srctide substrate and ATP by microfluidic mobility shift assay
[5] = Apparent permeability in human Caco2 cells; assay type: ADME, cell-based; settings: Caco-2
[6] = Kinetic solubility in phosphate buffer at pH 7.4 incubated for 1 hr at room temperature by LC-UV or LC-MS/MS method; assay type: physicochemical; settings: read-out: Kinetic_solubility
[7] = Stability in human microsomes; assay type: ADME, Microsome
[8] = Stability in mouse microsomes; assay type: ADME, Microsome
[9] = AUC (0 to infinity) in ICR mouse at 10 mg/kg, po; assay type: ADME, organism-based; parameters: dose 10 mg/kg, time infinity, route oral; settings: in vivo
[10] = target: T1, Tyrosine-protein kinase BTK; experiment: Inhibition of anti-IgM antibody stimulated BTK Tyr223 autophosphorylation in human Ramos cells at 30 nM pre-incubated for 1 hr followed by anti-IgM stimulation for 10 mins by Western blotting; assay type: cell-based
[11] = target: T2, Cytoplasmic tyrosine-protein kinase BMX (Homo sapiens) (UniProt P51813); experiment: Inhibition of N-terminal GST-fused human full length BMX at 0.3 uM
T2 sequence (whole entry): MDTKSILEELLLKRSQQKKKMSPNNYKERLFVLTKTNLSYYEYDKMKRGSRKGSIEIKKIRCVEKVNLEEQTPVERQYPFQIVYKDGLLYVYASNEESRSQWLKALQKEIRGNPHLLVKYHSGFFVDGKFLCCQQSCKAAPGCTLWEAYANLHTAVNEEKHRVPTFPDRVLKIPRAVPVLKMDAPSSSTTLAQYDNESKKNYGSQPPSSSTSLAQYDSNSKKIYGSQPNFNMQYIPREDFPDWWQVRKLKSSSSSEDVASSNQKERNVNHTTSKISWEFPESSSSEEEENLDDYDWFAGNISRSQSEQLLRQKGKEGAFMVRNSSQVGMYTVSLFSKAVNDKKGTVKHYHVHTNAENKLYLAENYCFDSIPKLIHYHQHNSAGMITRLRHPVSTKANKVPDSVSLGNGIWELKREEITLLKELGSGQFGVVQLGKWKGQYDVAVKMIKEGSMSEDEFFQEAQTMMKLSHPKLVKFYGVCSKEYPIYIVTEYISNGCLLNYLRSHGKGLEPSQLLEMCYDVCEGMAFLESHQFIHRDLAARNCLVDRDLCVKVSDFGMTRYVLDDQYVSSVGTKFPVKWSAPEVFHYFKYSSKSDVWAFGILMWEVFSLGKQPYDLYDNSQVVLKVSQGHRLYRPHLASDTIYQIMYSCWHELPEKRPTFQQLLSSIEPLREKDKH

[12] = target: T3, Tyrosine-protein kinase Tec (Homo sapiens) (UniProt P42680); experiment: Inhibition of N-terminal GST-fused human TEC catalytic domain (359 to 631 amino acids) at 0.3 uM
T3 sequence (whole entry): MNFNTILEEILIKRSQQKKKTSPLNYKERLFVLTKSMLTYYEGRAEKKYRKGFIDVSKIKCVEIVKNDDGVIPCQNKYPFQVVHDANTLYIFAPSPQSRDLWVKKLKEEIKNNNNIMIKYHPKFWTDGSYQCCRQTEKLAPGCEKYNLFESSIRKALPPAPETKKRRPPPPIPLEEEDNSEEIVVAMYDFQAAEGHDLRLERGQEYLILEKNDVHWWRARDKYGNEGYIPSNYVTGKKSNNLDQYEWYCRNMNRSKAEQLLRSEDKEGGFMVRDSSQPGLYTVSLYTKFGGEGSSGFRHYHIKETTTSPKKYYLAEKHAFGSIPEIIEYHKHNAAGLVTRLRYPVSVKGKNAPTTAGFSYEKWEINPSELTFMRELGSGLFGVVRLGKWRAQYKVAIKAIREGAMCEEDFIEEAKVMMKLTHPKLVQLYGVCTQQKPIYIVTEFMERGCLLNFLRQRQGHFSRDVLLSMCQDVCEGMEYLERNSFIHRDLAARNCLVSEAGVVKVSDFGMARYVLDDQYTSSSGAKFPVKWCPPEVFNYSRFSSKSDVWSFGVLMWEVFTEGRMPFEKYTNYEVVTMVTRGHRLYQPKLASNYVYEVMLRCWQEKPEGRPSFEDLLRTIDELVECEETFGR

[13] = tested on: Mus musculus; experiment: Inhibition of passive cutaneous anaphylaxis reaction in anti-DNP IgE sensitized mouse model of passive cutaneous anaphylaxis at 30 mg/kg, po dosed 46 hrs before DNP-BSA/dye mixture injection and measured after 30 mins; assay type: functional
[14] = target: Voltage-gated inwardly rectifying potassium channel KCNH2 (Homo sapiens, UniProt Q12809); experiment: Inhibition of human ERG
[15] = Half life in ICR mouse at 2 mg/kg, iv; assay type: ADME, organism-based; settings: in vivo
[16] = Half life in ICR mouse at 10 mg/kg, po; assay type: ADME, organism-based; settings: in vivo
[17] = Tmax in ICR mouse at 2 mg/kg, iv; assay type: ADME, organism-based; settings: in vivo
[18] = Tmax in ICR mouse at 10 mg/kg, po; assay type: ADME, organism-based; settings: in vivo
[19] = Cmax in ICR mouse at 2 mg/kg, iv; assay type: ADME, organism-based; parameters: dose 2 mg/kg, route intravenous; settings: in vivo
[20] = Cmax in ICR mouse at 10 mg/kg, po; assay type: ADME, organism-based; parameters: dose 10 mg/kg, route oral; settings: in vivo
[21] = AUC (0 to t) in ICR mouse at 2 mg/kg, iv; assay type: ADME, organism-based; settings: in vivo
[22] = AUC (0 to t) in ICR mouse at 10 mg/kg, po; assay type: ADME, organism-based; settings: in vivo
[23] = AUC (0 to infinity) in ICR mouse at 2 mg/kg, iv; assay type: ADME, organism-based; parameters: dose 2 mg/kg, route intravenous, time infinity; settings: in vivo
[24] = Apparent volume of distribution in ICR mouse at 2 mg/kg, iv; assay type: ADME, organism-based; settings: in vivo, read-out: Vz
[25] = Clearance in ICR mouse at 2 mg/kg, iv; assay type: ADME, organism-based; settings: in vivo
[26] = MRT (0 to infinity) in ICR mouse at 2 mg/kg, iv; assay type: ADME, organism-based; settings: in vivo
[27] = MRT (0 to infinity) in ICR mouse at 10 mg/kg, po; assay type: ADME, organism-based; settings: in vivo
[28] = Oral bioavailability in ICR mouse at 10 mg/kg; assay type: ADME, organism-based; settings: in vivo

T1 sequence (Q06187 whole entry): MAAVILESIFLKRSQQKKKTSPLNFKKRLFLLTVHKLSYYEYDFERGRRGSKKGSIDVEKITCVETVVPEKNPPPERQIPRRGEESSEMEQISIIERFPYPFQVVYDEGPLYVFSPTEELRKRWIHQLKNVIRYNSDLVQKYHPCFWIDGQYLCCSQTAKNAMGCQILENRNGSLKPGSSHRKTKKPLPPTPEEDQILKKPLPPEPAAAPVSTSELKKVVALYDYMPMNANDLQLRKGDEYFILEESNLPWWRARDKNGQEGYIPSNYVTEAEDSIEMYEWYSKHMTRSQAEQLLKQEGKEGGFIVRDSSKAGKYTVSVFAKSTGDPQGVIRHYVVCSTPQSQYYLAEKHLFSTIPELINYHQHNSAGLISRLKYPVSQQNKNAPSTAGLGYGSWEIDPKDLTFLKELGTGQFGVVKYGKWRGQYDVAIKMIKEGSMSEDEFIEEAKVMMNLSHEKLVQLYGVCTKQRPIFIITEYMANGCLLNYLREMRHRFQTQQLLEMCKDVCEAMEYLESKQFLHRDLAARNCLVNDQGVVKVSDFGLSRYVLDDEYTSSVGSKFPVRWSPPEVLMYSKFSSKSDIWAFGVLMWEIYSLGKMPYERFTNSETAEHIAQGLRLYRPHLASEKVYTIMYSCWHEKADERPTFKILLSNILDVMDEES
Chain of Voltage-gated inwardly rectifying potassium channel KCNH2 (Q12809 whole entry): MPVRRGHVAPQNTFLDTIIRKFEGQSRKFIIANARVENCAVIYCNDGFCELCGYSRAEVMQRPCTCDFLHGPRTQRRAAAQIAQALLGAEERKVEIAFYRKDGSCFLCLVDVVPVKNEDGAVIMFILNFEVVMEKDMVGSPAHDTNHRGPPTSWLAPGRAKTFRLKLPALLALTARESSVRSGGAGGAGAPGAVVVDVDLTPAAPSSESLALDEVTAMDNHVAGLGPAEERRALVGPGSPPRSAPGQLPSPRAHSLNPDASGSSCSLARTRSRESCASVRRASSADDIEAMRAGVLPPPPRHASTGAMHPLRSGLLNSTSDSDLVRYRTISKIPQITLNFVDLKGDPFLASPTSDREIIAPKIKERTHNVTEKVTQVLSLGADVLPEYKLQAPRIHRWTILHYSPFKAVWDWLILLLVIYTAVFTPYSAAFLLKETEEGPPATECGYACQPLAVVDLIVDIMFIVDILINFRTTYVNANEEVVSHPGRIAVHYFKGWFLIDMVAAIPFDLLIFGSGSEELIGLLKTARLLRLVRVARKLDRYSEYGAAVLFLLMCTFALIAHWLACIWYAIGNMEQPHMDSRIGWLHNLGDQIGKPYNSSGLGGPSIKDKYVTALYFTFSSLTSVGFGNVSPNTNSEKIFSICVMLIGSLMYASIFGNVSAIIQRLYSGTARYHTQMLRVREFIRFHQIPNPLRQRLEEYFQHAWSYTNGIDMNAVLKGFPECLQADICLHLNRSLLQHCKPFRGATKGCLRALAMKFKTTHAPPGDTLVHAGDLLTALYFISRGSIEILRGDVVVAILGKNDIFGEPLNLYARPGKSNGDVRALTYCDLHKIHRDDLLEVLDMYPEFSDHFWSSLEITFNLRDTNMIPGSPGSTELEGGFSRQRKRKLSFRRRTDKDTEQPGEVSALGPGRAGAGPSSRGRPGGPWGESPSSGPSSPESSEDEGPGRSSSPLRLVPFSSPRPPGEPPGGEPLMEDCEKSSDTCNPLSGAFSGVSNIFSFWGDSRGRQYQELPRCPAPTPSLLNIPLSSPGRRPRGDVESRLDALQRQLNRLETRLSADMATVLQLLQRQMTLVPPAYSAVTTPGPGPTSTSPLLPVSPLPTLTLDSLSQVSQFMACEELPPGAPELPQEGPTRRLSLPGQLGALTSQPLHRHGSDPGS

Nc1cc(-c2cccc(-n3ccc4cc(C5CC5)cc(F)c4c3=O)c2CO)nc(Nc2ccc(CN3CCOCC3)cc2)n1
IC50 [1]: > 10000 nM
IC50 [2]: 309 nM

CC(C)(C)c1ccc(C(=O)Nc2cccc(-c3ccnc(Nc4ccc5cn[nH]c5c4)n3)c2)cc1
IC50 [3]: 360 nM
IC50 [4]: 7300 nM

Cn1cc(Nc2nc(N)cc(-c3cccc(-n4ccc5cc(C6CC6)cc(F)c5c4=O)c3CO)n2)cc1C#N
IC50 [1]: 20.2 nM

Cn1ccc(Nc2nc(N)cc(-c3cccc(-n4ccc5cc(C6CC6)cc(F)c5c4=O)c3CO)n2)n1
IC50 [1]: 245 nM
IC50 [2]: 13.9 nM

Nc1cc(-c2cccc(-n3ccc4cc(C5CC5)cc(F)c4c3=O)c2CO)nc(Nc2cnn(CC(F)F)c2)n1
IC50 [1]: 3.3 nM
IC50 [2]: 0.2 nM
Papp [5]: 3.1 ×10⁻⁶ cm/s
solubility kinetic at 1 h [6]: 2.1 µM (≈ 1.15 µg/mL)

CN1CCN(c2ccc(Nc3nc(N)cc(-c4cccc(-n5ccc6cc(C7CC7)cc(F)c6c5=O)c4CO)n3)cc2)CC1
IC50 [1]: 5.3 nM

Cn1ccc(Nc2nc(N)cc(-c3cccc(-n4ccc5cc(C6CC6)cc(F)c5c4=O)c3CO)n2)c1
IC50 [1]: 62 nM
IC50 [2]: 17 nM

CC(C)(C)n1cc(Nc2nc(N)cc(-c3cccc(-n4ccc5cc(C6CC6)cc(F)c5c4=O)c3CO)n2)cn1
IC50 [1]: 11 nM
IC50 [2]: 0.6 nM
Papp [5]: 5.7 ×10⁻⁶ cm/s

Nc1cc(-c2cccc(-n3ccc4cc(C5CC5)cc(F)c4c3=O)c2CO)nc(Nc2cn[nH]c2)n1
IC50 [1]: 8.1 nM

CC(C)(C)c1ccc(C(=O)Nc2cccc(-c3ccnc(Nc4ccc5cc[nH]c5c4)n3)c2)cc1
IC50 [3]: > 10000 nM
IC50 [4]: 52 nM
Stability [7]: Unstable
Stability [8]: Unstable

COc1cc(Nc2nccc(-c3cccc(NC(=O)c4ccc(C(C)(C)C)cc4)c3C)n2)cc(OC)c1OC
IC50 [3]: > 10000 nM
IC50 [4]: 6.1 nM
Stability [7]: Unstable
Stability [8]: Unstable

Nc1cc(-c2cccc(-n3ccc4cc(C5CC5)cc(F)c4c3=O)c2CO)nc(Nc2ccc(N3CCOCC3)cc2)n1
IC50 [1]: 12.9 nM
IC50 [2]: 0.6 nM

Nc1cc(-c2cccc(-n3ccc4cc(C5CC5)cc(F)c4c3=O)c2CO)nc(Nc2cnn(C3CC3)c2)n1
IC50 [1]: 2.8 nM
AUC(0-inf) [9]: 19100 ng·h/mL
inhibition [10]: Active
Papp [5]: 6.9 ×10⁻⁶ cm/s
solubility kinetic at 1 h [6]: 9.8 µM (≈ 5.13 µg/mL)
inhibition [11]: 70%
inhibition [12]: 92%
inhibition in vivo at 30 mg/kg [13]: 46%
inhibition (INH) [14]: Active
half-life [15]: 1.09 h
half-life [16]: 1.31 h
Tmax [17]: 4.98 min
Tmax [18]: 1 h
Cmax [19]: 2260 ng/mL
Cmax [20]: 5940 ng/mL
AUC(0-t) [21]: 3150 ng·h/mL
AUC(0-t) [22]: 18700 ng·h/mL
AUC(0-inf) [23]: 3170 ng·h/mL
Vd [24]: 1 L/kg
clearance [25]: 10.5 mL/min/kg
MRT inf [26]: 1.36 h
MRT inf [27]: 2.24 h
bioavailability [28]: 120%

Cc1c(NC(=O)c2ccc(C(C)(C)C)cc2)cccc1-c1ccnc(Nc2ccc3[nH]ncc3c2)n1
IC50 [3]: > 10000 nM
IC50 [4]: 40 nM
Stability [7]: Unstable
Stability [8]: Unstable

Nc1cc(-c2cccc(-n3ccc4cc(C5CC5)cc(F)c4c3=O)c2CO)nc(Nc2cnn(CC3CC3)c2)n1
IC50 [1]: 3.4 nM
Papp [5]: 6.1 ×10⁻⁶ cm/s
solubility kinetic at 1 h [6]: 6.3 µM (≈ 3.39 µg/mL)

CC(C)n1cc(Nc2nc(N)cc(-c3cccc(-n4ccc5cc(C6CC6)cc(F)c5c4=O)c3CO)n2)cn1
IC50 [1]: 2.6 nM
IC50 [2]: 0.2 nM
Papp [5]: 3.7 ×10⁻⁶ cm/s
solubility kinetic at 1 h [6]: 4 µM (≈ 2.1 µg/mL)

COc1ccc(Nc2nc(N)cc(-c3cccc(-n4ccc5cc(C6CC6)cc(F)c5c4=O)c3CO)n2)cc1
IC50 [1]: 39 nM
IC50 [2]: 2.5 nM

Cc1c(NC(=O)c2ccc(C(C)(C)C)cc2)cccc1-c1ccnc(Nc2ccc(C(=O)N3CCOCC3)cc2)n1
IC50 [3]: > 10000 nM
Stability [7]: Unstable
Stability [8]: Unstable

Cc1c(NC(=O)c2ccc(C(C)(C)C)cc2)cccc1-c1ccnc(Nc2ccc3cn[nH]c3c2)n1
IC50 [3]: > 10000 nM
IC50 [4]: 440 to 450 nM
Stability [7]: Unstable
Stability [8]: Unstable

Cn1cc(Nc2nc(N)cc(-c3cccc(-n4ccc5cc(C6CC6)cc(F)c5c4=O)c3CO)n2)cn1
IC50 [1]: 3.7 nM
IC50 [2]: 0.4 nM
AUC(0-inf) [9]: 12800 ng·h/mL
inhibition [10]: Active
Papp [5]: 6.3 ×10⁻⁶ cm/s
solubility kinetic at 1 h [6]: 18 µM (≈ 8.96 µg/mL)
half-life [15]: 1.12 h
half-life [16]: 0.96 h
Tmax [17]: 4.98 min
Tmax [18]: 0.5 h
Cmax [19]: 2950 ng/mL
Cmax [20]: 4540 ng/mL
AUC(0-t) [21]: 3460 ng·h/mL
AUC(0-t) [22]: 12700 ng·h/mL
AUC(0-inf) [23]: 3480 ng·h/mL
Vd [24]: 0.93 L/kg
clearance [25]: 9.67 mL/min/kg
MRT inf [26]: 1.13 h
MRT inf [27]: 1.91 h
bioavailability [28]: 73.7%

Nc1cc(-c2cccc(-n3ccc4cc(C5CC5)cc(F)c4c3=O)c2CO)nc(Nc2cnn(C3(CO)CC3)c2)n1
IC50 [1]: 12 nM
IC50 [2]: 0.6 nM
Papp [5]: 0.7 ×10⁻⁶ cm/s

CCn1cc(Nc2nc(N)cc(-c3cccc(-n4ccc5cc(C6CC6)cc(F)c5c4=O)c3CO)n2)cn1
IC50 [1]: 10 nM
IC50 [2]: 0.4 nM
Papp [5]: 5.4 ×10⁻⁶ cm/s

CC(=O)c1cc(Nc2nc(N)cc(-c3cccc(-n4ccc5cc(C6CC6)cc(F)c5c4=O)c3CO)n2)cn1C
IC50 [1]: 5.9 nM
